From paper PMC8158484, “Activity Components from Gynostemma pentaphyllum for Preventing Hepatic Fibrosis and of Its Molecular Targets by Network Pharmacology Approach” (Molecules, 2021) come the findings set out here.

The structures appear in SMILES notation. A value given as a limit tells only on which side of the number the result lay.

In the first data set the test system is t-HSC/Cl-6 cells. In words: MTT cell proliferation assay, activated t-HSC/Cl-6 cells. The data set is classed as cell-based, human. Particulars: Rattus norvegicus, T-HSC/Cl-6, 36 h, mean ± SD, read-out: Inhibitory activity (IC50) in activated t-HSC/Cl-6 cells. As to the method:
(§1) The cell viability was assessed with the MTT assay. The human hepatic stellate cells (t-HSC/Cl-6) and human normal liver cells (LO2) bought from the Cell Bank of Chinese Academy of Sciences (Shanghai, China) were seeded in 96-well plates for 24 h and cultured with high glucose including 10% fetal bovine serum, and 1% penicillin/streptomycin were used to culture cells at 37 °C under 5% CO2 and then were treated with serial dilutions of the compounds (25, 50, 100, 200, 400 μM) for another 36 h. For MTT assay, ten microliters of MTT reagent ([…]) was added to each well after removing all the liquid in the wells, and incubated at 37 °C in a humidified atmosphere of 5% CO2 air for 4 h. At the end of incubation, the growth medium was removed and replaced with 100 μL of DMSO at room temperature and agitating on a vortex for 20 min. The absorbance was determined at 490 nm as reference on a Bio-Rad micro-plate reader.
In the case of `CC(C)=CC1CC(O)(C2CCC3(C)C2CCC2C4(C)CCC(OC5OC(CO)C(O)C(OC6OCC(O)C(O)C6O)C5OC5OC(C)C(O)C(O)C5O)C(C)(C)C4CCC23C)C(=O)O1` (centres unmarked) [Compound 9], the IC50 is 114 ± 7.8 µM.

`CC(C)=CCCC(O)(COC1OC(CO)C(O)C(O)C1O)C1CCC2(C)C1CCC1C3(C=O)CCC(OC4OCC(O)C(OC5OC(CO)C(O)C(O)C5O)C4OC4OC(C)C(O)C(O)C4O)C(C)(C)C3CCC12C` (centres unmarked) [Compound 10]: the IC50 was more than 200 µM.

Turning to `CC(C)=CCCC(O)(CO)C1CCC2(C)C1CCC1C3(C=O)CCC(OC4OCC(O)C(OC5OCC(O)C(O)C5O)C4OC4OC(C)C(O)C(O)C4O)C(C)(C)C3CCC12C` (centres unmarked) [Compound 11], the IC50 amounted to 43.6 ± 2.7 µM.

For the molecule `CC(C)=CCCC(O)(COC1OC(CO)C(O)C(O)C1O)C1CCC2(C)C1CCC1C3(C)CCC(OC4OC(CO)C(O)C(OC5OCC(O)C(O)C5O)C4OC4OC(C)C(O)C(O)C4O)C(C)(C)C3CCC12C` (centres unmarked) [Compound 12], the IC50 was more than 200 µM.

On to `CC(C)=CCCC(O)(COC1OC(CO)C(O)C(O)C1O)C1CCC2(C)C1CCC1C3(CO)CCC(OC4OC(CO)C(O)C(OC5OCC(O)C(O)C5O)C4OC4OC(C)C(O)C(O)C4O)C(C)(C)C3CCC12C` (centres unmarked) [Compound 14], for which the IC50 is more than 200 µM.

As to `CC(C)=CCCC(O)(COC1OC(CO)C(O)C(O)C1O)C1CCC2(C)C1CCC1C3(CO)CCC(OC4OCC(O)C(OC5OCC(O)C(O)C5O)C4OC4OC(C)C(O)C(O)C4O)C(C)(C)C3CCC12C` (centres unmarked) [Compound 15], the IC50 was more than 200 µM.

Turning to `CCCCOC1OC(C=C(C)C)CC1(O)C1CCC2(C)C1CCC1C3(C)CCC(OC4OCC(O)C(OC5OCC(O)C(O)C5O)C4OC4OC(C)C(O)C(O)C4O)C(C)(C)C3CCC12C` (centres unmarked) [Compound 16], the IC50 was found to be 44.7 ± 1 µM.

As for `CC(=O)OCC1OC(OC2CCC3(C)C(CCC4(C)C3CCC3C(C5(O)CC(C=C(C)C)OC5=O)CCC34C)C2(C)C)C(OC2OC(C)C(O)C(O)C2O)C(OC2OCC(O)C(O)C2O)C1O` (centres unmarked) [Compound 17], the IC50 turned out to be 66.1 ± 3.8 µM.

As to `C=C(C)C=CCC(O)(COC1OC(CO)C(O)C(O)C1O)C1CCC2(C)C1CCC1C3(C)CCC(OC4OC(CO)C(O)C(OC5OCC(O)C(O)C5O)C4OC4OCC(O)C(O)C4O)C(C)(C)C3CCC12C` (centres unmarked) [Compound 18], the IC50 was determined as 58 ± 2.9 µM.

Take `CCCCOC1OC(C=C(C)C)CC1(O)C1CCC2(C)C1CCC1C3(C)CCC(OC4OC(CO)C(O)C(OC5OCC(O)C(O)C5O)C4OC4OC(C)C(O)C(O)C4O)C(C)(C)C3CCC12C` (centres unmarked) [Compound 19]: the IC50 is 28.1 ± 2 µM.

A further data set concerns LO2 cells. In words: MTT cell proliferation assay, LO2 normal liver cells. Format: cell-based, human. Particulars: Homo sapiens, L02; 36 h, MTT; read-out: Inhibitory activity (IC50) in LO2 cells. As for the experimental part:
as §1
(In general: Tetrazolium assays rely on reduction of a dye to a coloured formazan, in cell work by metabolically active cells.)
For `CC(C)=CC1CC(O)(C2CCC3(C)C2CCC2C4(C)CCC(OC5OC(CO)C(O)C(OC6OCC(O)C(O)C6O)C5OC5OC(C)C(O)C(O)C5O)C(C)(C)C4CCC23C)C(=O)O1` (centres unmarked) [Compound 9], the IC50 is more than 200 µM.

Consider `CC(C)=CCCC(O)(COC1OC(CO)C(O)C(O)C1O)C1CCC2(C)C1CCC1C3(C=O)CCC(OC4OCC(O)C(OC5OC(CO)C(O)C(O)C5O)C4OC4OC(C)C(O)C(O)C4O)C(C)(C)C3CCC12C` (centres unmarked) [Compound 10], for which the IC50 was more than 200 µM.

In the case of `CC(C)=CCCC(O)(CO)C1CCC2(C)C1CCC1C3(C=O)CCC(OC4OCC(O)C(OC5OCC(O)C(O)C5O)C4OC4OC(C)C(O)C(O)C4O)C(C)(C)C3CCC12C` (centres unmarked) [Compound 11], the IC50 was more than 200 µM.

As for `CC(C)=CCCC(O)(COC1OC(CO)C(O)C(O)C1O)C1CCC2(C)C1CCC1C3(C)CCC(OC4OC(CO)C(O)C(OC5OCC(O)C(O)C5O)C4OC4OC(C)C(O)C(O)C4O)C(C)(C)C3CCC12C` (centres unmarked) [Compound 12], the IC50 is more than 200 µM.

For the molecule `CC(C)=CCCC(O)(COC1OC(CO)C(O)C(O)C1O)C1CCC2(C)C1CCC1C3(CO)CCC(OC4OC(CO)C(O)C(OC5OCC(O)C(O)C5O)C4OC4OC(C)C(O)C(O)C4O)C(C)(C)C3CCC12C` (centres unmarked) [Compound 14], the IC50 is more than 200 µM.

For the molecule `CC(C)=CCCC(O)(COC1OC(CO)C(O)C(O)C1O)C1CCC2(C)C1CCC1C3(CO)CCC(OC4OCC(O)C(OC5OCC(O)C(O)C5O)C4OC4OC(C)C(O)C(O)C4O)C(C)(C)C3CCC12C` (centres unmarked) [Compound 15], the IC50 was more than 200 µM.

For the molecule `CCCCOC1OC(C=C(C)C)CC1(O)C1CCC2(C)C1CCC1C3(C)CCC(OC4OCC(O)C(OC5OCC(O)C(O)C5O)C4OC4OC(C)C(O)C(O)C4O)C(C)(C)C3CCC12C` (centres unmarked) [Compound 16], the IC50 is more than 200 µM.

With `CC(=O)OCC1OC(OC2CCC3(C)C(CCC4(C)C3CCC3C(C5(O)CC(C=C(C)C)OC5=O)CCC34C)C2(C)C)C(OC2OC(C)C(O)C(O)C2O)C(OC2OCC(O)C(O)C2O)C1O` (centres unmarked) [Compound 17], the IC50 was more than 200 µM.

In the case of `C=C(C)C=CCC(O)(COC1OC(CO)C(O)C(O)C1O)C1CCC2(C)C1CCC1C3(C)CCC(OC4OC(CO)C(O)C(OC5OCC(O)C(O)C5O)C4OC4OCC(O)C(O)C4O)C(C)(C)C3CCC12C` (centres unmarked) [Compound 18], the IC50 is more than 200 µM.

As for `CCCCOC1OC(C=C(C)C)CC1(O)C1CCC2(C)C1CCC1C3(C)CCC(OC4OC(CO)C(O)C(OC5OCC(O)C(O)C5O)C4OC4OC(C)C(O)C(O)C4O)C(C)(C)C3CCC12C` (centres unmarked) [Compound 19], the IC50 was more than 200 µM.

The data set is the same for the next values; noted with them: in words.
As to `CCCCOC1OC(C=C(C)C)CC1(O)C1CCC2(C)C1CCC1C3(C)CCC(OC4OC(CO)C(O)C(OC5OCC(O)C(O)C5O)C4OC4OC(C)C(O)C(O)C4O)C(C)(C)C3CCC12C` (centres unmarked) [Compound 19], the “Cytotoxicity to LO2 cells” value is recorded as “nontoxic”.

Another data set deals with t-HSC/C1-6 cells. The data set is described as follows: Cell cycle analysis by flow cytometry (propidium iodide). Format: cell-based, human. As to conditions: 50 μM compound, 36 h; control group 1.04%. As for the experimental part:
The cell cycle analysis was performed using a previous method. The t-HSC/C1-6 cells were cultured in the presence of 50 μM compound 19 and DMSO for 12 h, 24 h, and 36 h. Briefly, treated and untreated cells were trypsinized, harvested, and washed with PBS. Then the cells were fixed with 75% ethanol overnight at […]. Fixed cells were washed with PBS and stained with propidium iodide solution in the dark for 4 h. Cell cycle distribution was analyzed using FACScan (Becton Dickinson Immunocytometry Systems, San Jose, CA, USA).
(In general: Flow cytometry measures light scatter and fluorescence of single cells or particles in a stream.)
Consider `CCCCOC1OC(C=C(C)C)CC1(O)C1CCC2(C)C1CCC1C3(C)CCC(OC4OC(CO)C(O)C(OC5OCC(O)C(O)C5O)C4OC4OC(C)C(O)C(O)C4O)C(C)(C)C3CCC12C` (centres unmarked) [Compound 19], for which the “Cells in the subG1 phase” value worked out at 38.63%.

The subject of another data set is t-HSC/Cl-6 cells. The data set is described as follows: Cell apoptosis analysis: cell morphology and DAPI nuclear staining, t-HSC/Cl-6 cells. Format: cell-based, human. As to conditions: 36 h. As to the method: (§2) For cell morphology analysis, t-HSC/C1-6 cells and LO2 cells were grown in 6-well plates. After 24 h, compound 19 was incubated with the cells for another 36 h and 0.1% DMSO was used to culture control cells. […] Then the cells were rinsed with PBS and resuspended in 1 mL of 0.1% DAPI prepared in methanol for 15 min. PBS was used to wash the cells three times. Nuclear morphology was observed by a fluorescent microscope (Olympus BH-2, Osaka, Japan).
In the case of `CCCCOC1OC(C=C(C)C)CC1(O)C1CCC2(C)C1CCC1C3(C)CCC(OC4OC(CO)C(O)C(OC5OCC(O)C(O)C5O)C4OC4OC(C)C(O)C(O)C4O)C(C)(C)C3CCC12C` (centres unmarked) [Compound 19], the “Nuclear morphology of t-HSC/Cl-6 cells (DAPI staining)” value was “Typical apoptotic nuclear changes were observed”.

Staying with this data set, now noted: 36 h, phase contrast microscopy.
As for `CCCCOC1OC(C=C(C)C)CC1(O)C1CCC2(C)C1CCC1C3(C)CCC(OC4OC(CO)C(O)C(OC5OCC(O)C(O)C5O)C4OC4OC(C)C(O)C(O)C4O)C(C)(C)C3CCC12C` (centres unmarked) [Compound 19], the “Cell morphology (apoptosis) of t-HSC/Cl-6 cells” value was “apoptotic bodies and cell shrinkage were observed”.

The test system of a further data set is LO2 cells. The data set is described as follows: Cell apoptosis analysis: cell morphology and DAPI nuclear staining, LO2 cells. Format: cell-based, human. Particulars: 36 h. As to the method:
as §2
`CCCCOC1OC(C=C(C)C)CC1(O)C1CCC2(C)C1CCC1C3(C)CCC(OC4OC(CO)C(O)C(OC5OCC(O)C(O)C5O)C4OC4OC(C)C(O)C(O)C4O)C(C)(C)C3CCC12C` (centres unmarked) [Compound 19]: the “Nuclear morphology of LO2 cells (DAPI staining)” value was “did not appear to have any specific effect”.

The same data set, now with this note: 36 h, phase contrast microscopy.
Turning to `CCCCOC1OC(C=C(C)C)CC1(O)C1CCC2(C)C1CCC1C3(C)CCC(OC4OC(CO)C(O)C(OC5OCC(O)C(O)C5O)C4OC4OC(C)C(O)C(O)C4O)C(C)(C)C3CCC12C` (centres unmarked) [Compound 19], the “Cell morphology of LO2 cells” value is reported as “no shrinkage was seen”.

The subject of a further data set is t-HSC/Cl-6 cells. The data set is described as follows: Western blotting of cell cycle, PI3K/Akt and caspase proteins. Format: cell-based, human.
Conditions: not given
As for the experimental part: RIPA lysis buffer was used to extract total cellular proteins, and the protein concentration was determined by bicinchoninic acid. Protein samples (20 μg/lane) were loaded onto 10% SDS–PAGE gels for electrophoresis and then the transmembrane was conducted. After that, blocking of polyvinylidene fluoride (PVDF) membrane was carried out using 5% bovine serum albumin in Tris-buffered saline Tween-20 (TBST) buffer for 1 h, subsequently probing with a primary antibody (1:1000 dilution), such as p-PI3K, p-Akt, Cl-caspase-3, Cl-caspase-9, Cl-PARP, CDK4, Cyclin D1, or P21, at 4 °C overnight. Then, TBTS was used to wash the membrane. The PVDF membranes were incubated with the secondary antibody (1:5000 dilution) for 2 h. X-ray films were employed to develop the signals.
Background: In western blotting, separated proteins are transferred to a membrane and probed.
Regarding `CCCCOC1OC(C=C(C)C)CC1(O)C1CCC2(C)C1CCC1C3(C)CCC(OC4OC(CO)C(O)C(OC5OCC(O)C(O)C5O)C4OC4OC(C)C(O)C(O)C4O)C(C)(C)C3CCC12C` (centres unmarked) [Compound 19], the “cyclin D1 expression” value was “decreased” and the p21 level result was “significant accumulation”.

Staying with this data set, now noted: as time increased.
In the case of `CCCCOC1OC(C=C(C)C)CC1(O)C1CCC2(C)C1CCC1C3(C)CCC(OC4OC(CO)C(O)C(OC5OCC(O)C(O)C5O)C4OC4OC(C)C(O)C(O)C4O)C(C)(C)C3CCC12C` (centres unmarked) [Compound 19], the “Expression of phosphorylated-Akt” value was “inhibited” and the “Expression of phosphorylated-PI3K” value was “inhibited”.

The same data set, now with this note: dose-dependent manner as printed.
Regarding `CCCCOC1OC(C=C(C)C)CC1(O)C1CCC2(C)C1CCC1C3(C)CCC(OC4OC(CO)C(O)C(OC5OCC(O)C(O)C5O)C4OC4OC(C)C(O)C(O)C4O)C(C)(C)C3CCC12C` (centres unmarked) [Compound 19], the “Expression level of cleaved caspase-3” value was “activated” and the “Expression level of cleaved caspase-9” value was “activated”.
